The values that follow come from PubChem BioAssay AID1549 (Sanford-Burnham Center for Chemical Genomics, 2009).

Activity calls are given as the source filed them. No rule for the calls is given here.

This experiment addresses Influenza A virus M2 proton channel (A/TW/4845/1999 H1N1). Nature of the experiment: M2 proton channel binding, NMR based, influenza A virus H1N1 strain (AID 1549). As to conditions: NMR binding screen, M2 protein.
On to `Cc1ncc(C[n+]2csc3ccccc32)c(N)n1`, for which the Kd (usually a measure of binding affinity in units of concentration) is > 4 mM (inactive). As for `Cc1ccc(-n2ncc(C#N)c2/N=C/N(C)C)cc1`, the Kd is > 4 mM (inactive). The result for `CC(C)[C@@H]1CC[C@@H](C)C[C@H]1O` reads > 4 mM (inactive); that for `O=C1NC(=S)S/C1=C/c1ccncc1`, > 4 mM (inactive). In the case of `COc1ccc2ccc(=O)oc2c1CC=C(C)C` it was > 4 mM (inactive); in that of `CN1CCC(=NNC(=O)c2ccco2)CC1`, > 4 mM (inactive).

On to `Cc1cc(=O)[nH]c(N2CCN(Cc3ccccc3)CC2)n1`, for which the Kd is > 4 mM (inactive). The result for `O=c1cccc2n1C[C@H]1CNCC2C1` reads > 4 mM (inactive); that for `COc1ccc2c(c1OC)C(=O)O[C@@H]2[C@@H]1c2cc3c(cc2CCN1C)OCO3`, > 4 mM (inactive). In the case of `CC(=O)Nc1ccc(NC(=O)c2ccnn2C)cc1` it was > 4 mM (inactive).

As for `COC(=O)N1CCN(c2ccc(C(C)=O)cc2)CC1`, the Kd was > 4 mM (inactive). The result for `Cc1cc(NC(=O)c2ccccc2C(=O)O)no1` reads > 4 mM (inactive); that for `CC(C)=CCc1c2c(c3occ(-c4ccc(O)cc4)c(=O)c3c1O)C=CC(C)(C)O2`, > 4 mM (inactive). The result for `O=c1c2c(nc3nc(Cc4ccccc4)[nH]n13)CCC2` reads > 4 mM (inactive); that for `CSc1nc2[nH]ncc2c(=O)[nH]1`, > 4 mM (inactive); that for `Cc1ccccc1N1C(=O)CC(=O)NC1=O`, > 4 mM (inactive). The result for `COCC(=O)OCn1nnc2ccccc2c1=O` reads > 4 mM (inactive); that for `Nc1c(S(=O)(=O)c2ccccc2)csc1C(=O)O`, > 4 mM (inactive). For `O=C1C=C(Nc2ccccc2O)c2ccccc2C1=O`, the Kd is > 4 mM (inactive).

`COc1ccc(Cl)c(S(=O)(=O)N2CCCC2)c1`: the Kd was > 4 mM (inactive). On to `CN1CCN(CC(=O)Nc2ccccc2)CC1`, for which the Kd is > 4 mM (inactive). On to `NC(=O)c1ccc(N2C(=O)CCC2=O)cc1Cl`, for which the Kd was > 4 mM (inactive). The result for `Cc1ccc(S(=O)(=O)CCc2ccccn2)cc1` reads > 4 mM (inactive); that for `CC1=C(C(N)=O)C(c2ccco2)C(C(N)=O)=C(C)N1`, > 4 mM (inactive); that for `Cc1cc(=O)oc2cc3c(cc12)OCCO3`, > 4 mM (inactive). With `O=C(CNC(=O)c1ccc(F)cc1)NC1=NCCS1`, the Kd was > 4 mM (inactive). The result for `OC[C@H]1O[C@@](CO)(O[C@@H]2O[C@H](CO)[C@@H](O)[C@H](O)[C@H]2O)[C@@H](O[C@@H]2O[C@H](CO)[C@@H](O)[C@H](O)[C@H]2O)[C@@H]1O` reads > 4 mM (inactive); that for `COc1cccc(O)c1O`, > 4 mM (inactive); that for `O=C(NCN1CCOCC1)c1cnccn1`, > 4 mM (inactive). In the case of `O=C(O)CCn1c(=O)oc2ccccc21` it was > 4 mM (inactive); in that of `CC(=O)NC(c1ccccc1)c1cccnc1` (stereo unspecified), > 4 mM (inactive); in that of `CSc1ccccc1NC(=O)c1ccncc1`, > 4 mM (inactive). The result for `CC(=O)Nc1ccc(N2CCOCC2)cc1` reads > 4 mM (inactive); that for `O=C(Nc1ccccc1CO)c1ccccc1F`, > 4 mM (inactive). For the compound `NC(=O)C(=O)Nc1nc(-c2ccccc2)cs1`, the Kd is > 4 mM (inactive). In the case of `Cc1cc(O)c2c(c1O)C(=O)c1c(O)cc(C)c(O)c1C2=O` it was > 4 mM (inactive); in that of `COC(=O)c1ccc(N2CCOCC2)nc1`, > 4 mM (inactive); in that of `NC(=O)c1ccccc1N=Cc1ccco1`, > 4 mM (inactive). The result for `Cc1cc(C(=O)Nc2sc3c(c2C#N)CCC3)no1` reads > 4 mM (inactive); that for `Cc1cc(C(=O)Nc2cccnc2)cs1`, > 4 mM (inactive). The result for `CCOC(=O)C1CCN(c2ncnc3nc[nH]c23)CC1` reads > 4 mM (inactive).

With `COc1ccc(C(=O)/C=C/c2ccccc2)cc1`, the Kd is > 4 mM (inactive). In the case of `Nc1ncnc(Cl)c1[N+](=O)[O-]` it was > 4 mM (inactive); in that of `O=C(COc1ccccc1)N1CCc2ccccc2C1`, > 4 mM (inactive).

Take `CC1=CC2C(CC1=O)C(C)=CCC2C(C)C` (stereo unspecified): the Kd is > 4 mM (inactive). The result for `O=C(O)c1csc(-c2cccnc2)n1` reads > 4 mM (inactive). The result for `CN1CCC(NC(=S)NC2CC2)CC1` reads > 4 mM (inactive).

Consider `COc1cc(C)nc(N(CCO)CCO)n1`, for which the Kd was > 4 mM (inactive).

In the case of `Cc1cc(NC(=O)c2ocnc2C)no1`, the Kd was > 4 mM (inactive). The result for `CC(=O)/C=C\[C@@H]1[C@@]2(C)CCCC(C)(C)C2CC[C@@]1(C)O` (stereo partly specified) reads > 4 mM (inactive). `O=C(CC1SC(=O)NC1=O)Nc1nccs1` (stereo unspecified): the Kd was > 4 mM (inactive).

In the case of `O=C(c1ccco1)N1CCN(c2ccc(Cl)cc2)CC1`, the Kd was > 4 mM (inactive). Consider `Nc1ccc(-n2cccn2)cc1`, for which the Kd was > 4 mM (inactive). The result for `Cc1cc2ncc(C(=O)Nc3ccccc3)c(C)n2n1` reads > 4 mM (inactive). The result for `Nc1nc2n(c1C(=O)c1ccccc1)CCC2` reads > 4 mM (inactive). In the case of `C/C=C(/C)C(=O)O[C@H]1CC[C@@]2(C)[C@@H]3CC[C@H]4[C@]5(O)C[C@H](O)[C@@]6(O)[C@@H](CN7C[C@@H](C)CC[C@H]7[C@@]6(C)O)[C@]5(O)C[C@@]42OC13O` it was > 4 mM (inactive). For the compound `Cc1cc(C)c2nncn2n1`, the Kd was > 4 mM (inactive). In the case of `NS(=O)(=O)c1ccc(NC(=O)C(F)(F)F)cc1` it was > 4 mM (inactive). In the case of `Cc1ccc(C(=O)Nn2cnnc2)s1` it was > 4 mM (inactive); in that of `CC(=O)Nc1ccc(S(=O)(=O)Nc2cc(C)on2)cc1`, > 4 mM (inactive). As for `COc1c(F)c(F)c(-c2csc(N)n2)c(F)c1F`, the Kd is > 4 mM (inactive).

Regarding `Cc1cc(NC(=O)CS(=O)(=O)c2ccccc2)no1`, the Kd was > 4 mM (inactive).

Take `Cn1cccc1C=C1C(=O)NC(=S)NC1=O`: the Kd was > 4 mM (inactive). In the case of `CC(C)=CCCC1(C)C=Cc2c(O)c3c(c(CC=C(C)C)c2O1)OC12C(=CC4CC1C(C)(C)OC2(C/C=C(/C)C(=O)O)C4=O)C3=O` (stereo unspecified) it was > 4 mM (inactive). In the case of `Nc1ncnc2c1ncn2CCN1CCOCC1` it was > 4 mM (inactive).

`NS(=O)(=O)c1ccc2c(c1)OCCO2`: the Kd was > 4 mM (inactive).

As to `Cc1cn2c(-c3cccnc3)nnc2s1`, the Kd is > 4 mM (inactive). The result for `CC(=O)Oc1c(-c2ccccc2)oc2c(CC=C(C)C)c3c(c(OC(C)=O)c2c1=O)C=CC(C)(C)O3` reads > 4 mM (inactive); that for `O=C1C(=O)N(CN2CCN(CCO)CC2)c2ccccc21`, > 4 mM (inactive); that for `Cc1n[nH]c(=S)n(/N=C/c2cccs2)c1=O`, > 4 mM (inactive). The result for `O=C(O)CS(=O)(=O)c1ccccc1[N+](=O)[O-]` reads > 4 mM (inactive); that for `O=S1(=O)CCC(N2CCCCC2)C1` (stereo unspecified), > 4 mM (inactive).

For `CNS(=O)(=O)c1cccs1`, the Kd is > 4 mM (inactive). The result for `O=c1[nH]nnc2sc3c(c12)CCCC3` reads > 4 mM (inactive). The result for `CCOC12NC(=O)CC(=O)N1C(c1ccccc1)=CS2` (stereo unspecified) reads > 4 mM (inactive). In the case of `O=S(=O)(Cc1ccccc1)N1CCCCCC1` it was > 4 mM (inactive); in that of `CN(C)C(=O)N1CCN(C(=O)c2ccco2)CC1`, > 4 mM (inactive); in that of `CCOC(=O)C1CCN(Cc2ccccc2)CC1=O` (stereo unspecified), > 4 mM (inactive).

Consider `COC(CC(=O)O)c1nc2ccccc2s1` (stereo unspecified), for which the Kd was > 4 mM (inactive). In the case of `COc1cc2c(cc1OC)[C@@H]1C(=O)c3ccc4c(c3O[C@@H]1CO2)C=CC(C)(C)O4` it was > 4 mM (inactive); in that of `C[C@@H]1CC[C@@]2(OC1)OC1CC3C4CC=C5C[C@@H](O)CC[C@]5(C)C4CC[C@]3(C)C1[C@@H]2C` (stereo partly specified), > 4 mM (inactive); in that of `COc1ccc(Cl)cc1NC(=O)c1ccco1`, > 4 mM (inactive).

For `CNC(=S)Nc1ncn(Cc2cccc(F)c2)n1`, the Kd was > 4 mM (inactive).

Regarding `O=S1(=O)CCC2CC=CCC21` (stereo unspecified), the Kd is > 4 mM (inactive). The result for `Cc1ccc2c(C)c(C(=O)Nc3nnc(C)s3)oc2c1` reads > 4 mM (inactive). The result for `COc1c(O)cc2oc3cc(O)c(CC=C(C)C)c(O)c3c(=O)c2c1CC=C(C)C` reads > 4 mM (inactive); that for `COc1ccc(C(C)=O)c(OC)c1`, > 4 mM (inactive). In the case of `NC(=O)c1ccccc1NC(=O)c1cccnc1` it was > 4 mM (inactive); in that of `O=C(/C=C1\SC(=O)NC1=O)NCc1ccccc1`, > 4 mM (inactive); in that of `Nc1ncnc2c1ncn2CCOc1ccccc1`, > 4 mM (inactive). Regarding `O=C(Nc1ccc2c(c1)OCO2)c1cccs1`, the Kd is > 4 mM (inactive).

Regarding `CSc1nnc2c(n1)OC(C)=Nc1ccccc1-2`, the Kd was > 4 mM (inactive). The result for `CC(C)CNc1cc(=O)n(C)c(=O)n1C` reads > 4 mM (inactive); that for `CC(C)CCCC(C)C1CCC2C3CC(=O)[C@H]4C[C@@H](O)CC[C@]4(C)C3CC[C@]12C` (stereo partly specified), > 4 mM (inactive).

As for `Nc1ccc(S(=O)(=O)N2CCCCC2)cc1`, the Kd is > 4 mM (inactive). In the case of `Cc1nc2ccc(NC(=O)N3CCSCC3)cc2s1` it was > 4 mM (inactive); in that of `CCOc1cc(C)c(Cl)cc1S(=O)(=O)N(C)C`, > 4 mM (inactive). In the case of `O=C(NCc1ccc2c(c1)OCO2)c1cccs1`, the Kd is > 4 mM (inactive). As to `CNC(=S)Nc1cccc(C(=O)O)c1`, the Kd is > 4 mM (inactive). The result for `Cc1cccc(C(C)C)c1NC(=O)c1cccnc1` reads > 4 mM (inactive). In the case of `OC12CC3CC(C1)C1(NCCS1)C(C3)C2` (stereo unspecified) it was > 4 mM (inactive).
